Tests used:
Type in all cases: in vivo, human
[1] = tested on: Protein C inhibitor (PCI) transcripts; assay: Gene expression profiling (Affymetrix chips) of muscle from diabetics before/after 3 months troglitazone: PCI; conditions: basal muscle sample
Text: The molecular mechanism by which thiazolidinediones (TZDs) cause an increase in peripheral insulin sensitivity was studied. Genes in muscle or fat whose expression is altered by TZDs may lie on a pathway leading from TZD treatment to increased insulin sensitivity. Modulators of such genes can elicit the same effect as TZD treatment. Moreover, such modulators can lack some of the side effects of TZD. The majority of glucose disposal occurs in muscle. For this reason, gene expression profiling in human muscle from diabetics treated with troglitazone was used to identify genes important for TZD action and therefore treatment of diabetes and insulin resistance. Gene expression profiling was performed on tissue samples (muscle) obtained from lean obese and diabetic individuals. […] Gene expression profile differences were calculated as follows. […] The raw data was analyzed by a statistical test to remove ‘outliers’. The mean ‘average difference score’ was then calculated from the average difference scores for all individuals in a particular treatment group. Genes were determined to be changed in three different comparisons by calculating the Students t test statistic between two conditions and selecting those with t less than or equal to 0.05. Fold change was determined as the ratio of mean average difference score in condition 2 to the mean average difference score in condition 1. […]

[2] = tested on: Protein C inhibitor (PCI) expression; assay: Real time PCR of PCI expression in muscle, pre- vs post-troglitazone-treated patients; conditions: mean diabetic post-Tro/mean diabetic pre-Tro expression
Protocol: The gene expression changes observed in the human muscle samples derived from the various comparison populations analyzed in the profiling analysis described above were further confirmed by the use of real-time quantitative PCR. A combination of specific PCR primers and a Taqman probe were designed to detect and quantify expression levels for each gene. Relative gene expression levels were determined in this manner in each patient and the mean expression levels in the comparison populations were then calculated. PCI expression was also evaluated by real time PCR in lean vs. obese individuals and in pre-troglitazone-treated vs post-troglitazone-treated patients.

[3] = tested on: MAST205/MAST205b transcripts; assay: Gene expression profiling (Affymetrix chips) of muscle from diabetics before/after 3 months troglitazone: MAST205/MAST205b; conditions: basal muscle sample
Protocol: Gene expression profiling was performed on tissue samples (muscle) obtained from lean obese and diabetic individuals. Two studies were performed. In the first study, basal samples were isolated from all individuals at the beginning of a 5 hour hyperinsulinemic euglycemic clamp. Clamp samples were isolated at the end of this procedure. Similar basal and clamp samples were taken 3 months later after all patients had taken the insulin sensitizing drug troglitazone (tro). Gene expression profile differences were calculated as follows. The expression level of a particular gene is indicated by its ‘average difference score’. The raw data was analyzed by a statistical test to remove ‘outliers’. The mean ‘average difference score’ was then calculated from the average difference scores for all individuals in a particular treatment group. Genes were determined to be changed in three different comparisons by calculating the Students t test statistic between two conditions and selecting those with t less than or equal to 0.05. Fold change was determined as the ratio of mean average difference score in condition 2 to the mean average difference score in condition 1. The first comparison is basal leans (condition 1) versus basal obese (condition 2). The second comparison is basal leans (condition 1) versus basal diabetics (condition). […]

MAST205b expression = assay: Real-time PCR (Taqman) specific for MAST205b in muscle before/after 3 months troglitazone
Protocol: (§1) The gene expression changes observed in the human muscle samples derived from the various comparison populations analyzed in the profiling analysis described above were further confirmed by the use of real-time quantitative PCR. A combination of specific PCR primers and a Taqman probe were designed to detect and quantify expression levels for each gene. Relative gene expression levels were determined in this manner in each patient and the mean expression levels in the comparison populations were then calculated. […] PCR primers and Taqman Probe were designed to detect specifically the expression of MAST205b. The sequences of the primers was as follows: […]

MAST205 expression = assay: Real-time PCR (Taqman) specific for MAST205 in muscle before/after 3 months troglitazone
Protocol: as §1, with “MAST205.” for “MAST205b.”

[4] = 3 months troglitazone, gene profiling
[5] = muscle, lean individuals after 3 months troglitazone, relative to Lean Pre-Trog = 100%
[6] = ratio of relative expression Diabetic Post-Trog to Diabetic Pre-Trog

## Cc1c(C)c2c(c(C)c1O)CCC(C)(COc1ccc(CC3SC(=O)NC3=O)cc1)O2 (centres unmarked) [troglitazone]
[1]; [4]
  Fold Change (diabetic post tro/diabetic pre tro), Protein C inhibitor: 0.51
[1]; diabetics after 3 months of Troglitazone treatment, pre-Trog mean 1422
  Mean Expr, Diabetic Post-Trog (Protein C inhibitor): 722
[2]
  Expression Fold change, Diabetics + Tro/Diabetics − Tro (PCI): 0.33
[3]; [4]
  Fold Change, Diabetic Post-Trog vs Pre-Trog (MAST205): 0.74
[3]; diabetics after 3 months troglitazone, pre-Trog mean 1234
  Mean Expr, Diabetic Post-Trog (MAST205): 919
MAST205b expression; muscle, diabetics after 3 months troglitazone, relative to Lean Pre-Trog = 100%, Diabetic Pre-Trog 197
  Relative Exp (%), Diabetic Post-Tro (MAST205b): 111%
MAST205b expression; [5]
  Relative Exp (%), Lean Post-Trog (MAST205b): 88%
MAST205b expression; [6]
  Fold Change (D+/D−) (MAST205b): 0.56
MAST205 expression; muscle, diabetics after 3 months troglitazone, relative to Lean Pre-Trog = 100%, Diabetic Pre-Trog 242
  Relative Exp (%), Diabetic Post-Tro (MAST205): 66%
MAST205 expression; [5]
  Relative Exp (%), Lean Post-Trog (MAST205): 98%
MAST205 expression; [6]
  Fold Change (D+/D−) (MAST205): 0.27

— patent publication US20060234292A1, “Methods of diagnosing and treating diabetes and insulin resistance” (priority 2002, published 2006)
